Reference: patent US20110098492A1, “CLEANING COMPOSITIONS CONTAINING MID-RANGE ALKOXYLATES” (priority 2008, published 2011)

Legend:
[1] = Cleaning of cross-linked petroleum grease (1-octadecene soil)
Description: The same procedure used above for cross-linked triglycerides was used, except that 1-octadecene was used instead of Canola Oil.

[2] = Ross-Miles foam height test (ASTM D1173); assay type: physicochemical
Description: A) Ross-Miles Foam Height Test: This test is carried out according to the protocol of ASTM […].

[3] = Gel range in water at 23 C; assay type: physicochemical; set-up: key: L = Liquid; G = Gel; TL = Thick Liquid
Description: One way the industry expresses a tendency of a surfactant to cause gels is a “gel range.” A typical gel range describes a percentage of samples that form gels, out of a number of samples, each having increasing surfactant concentration. […] A sample forms a gel when it is non-pourable for at least five seconds at 23° centigrade (° C.) when its container is inverted 180° so the container's open spout or mouth faces down. For many applications, a surfactant ideally has no gel range.
D) Gel range: Ten surfactant solutions are made using 0%, 10%, 20%, 30%, 40%, 50%, 60%, 70%, 80%, 90% water. […] The test is run at 23 C.

[4] = Pour point test (ASTM D97); assay type: physicochemical
Description: C) Pour Point Test: This test is carried out according to the protocol of ASTM Test D97.

[5] = Surface tension and critical micelle concentration (Wilhelmy plate); assay type: physicochemical
Description: B) Surface Tension and Critical Micelle Concentration (CMC) Measurement. For this test the surface tension of a surfactant-water solution is measured while incrementally adding the surfactant to de-ionized water. Results are measured in terms of dyne/centimeters using a Wilhelmy plate. Results are recorded versus surfactant concentration. The Critical Micelle Concentration is the point at which an increase in surfactant concentration no longer results in a change in surface tension.

Ross Miles Foam Height, millimeters, 5 Minutes ([2]; 5 Minutes): 0 millimeters
Ross Miles Foam Height, millimeters, Initial ([2]; Initial (0 sec)): 45 millimeters
Gel Range, Percent Surfactant in Water at 23 C. ([3]; 10% surfactant in water): L
Gel Range, Percent Surfactant in Water at 23 C. ([3]; 20% surfactant in water): L
Gel Range, Percent Surfactant in Water at 23 C. ([3]; 30% surfactant in water): L
Gel Range, Percent Surfactant in Water at 23 C. ([3]; 40% surfactant in water): L
Gel Range, Percent Surfactant in Water at 23 C. ([3]; 50% surfactant in water): L
Gel Range, Percent Surfactant in Water at 23 C. ([3]; 60% surfactant in water): L
Gel Range, Percent Surfactant in Water at 23 C. ([3]; 70% surfactant in water): L
Gel Range, Percent Surfactant in Water at 23 C. ([3]; 80% surfactant in water): TL
Gel Range, Percent Surfactant in Water at 23 C. ([3]; 90% surfactant in water): L
Pour Point [4]: 44 ° F.
Surface Tension ([5]; 0.1 wt % in water): 31 dyne/centimeters
Critical Micelle Concentration ([5]; in de-ionized water): 1750 ppm
Substance: 2EH(PO)5.5(EO)8 [Example 3]
Arbitrary Gray Value ([1]; 1% by weight in water, cross-linked 1-octadecene soil): 136
cleaning of cross-linked 1-octadecene / mineral oil (in words) ([1]; compared with Tergitol NP-9): equivalent to Tergitol NP-9
